Reference: patent US20150119247A1, “Composition and Method for Stress Mitigation in Plants” (Stoller Enterprises, Inc., priority 2011, published 2015)

Legend:
Type in all cases: in vivo
Arabidopsis thaliana = assay: High temperature seed/silique development, first experiment (FIG. 1)
Description: These experiments employed the model crop plant, Arabidopsis thaliana, whose genome was mapped as early as the year 2000. To ensure uniformity, the tested plants were selected such that they were in the beginning stages of flowering and had balanced numbers of flowers across groups. The control agent as well as all tested agents were applied in a water solution containing 0.01% Silwet® super spreader (obtained from General Electric) to the leaves and flowers (i.e., foliage) of the tested plants. […] The third and fourth agents tested consisted of 6-benzyl adenine (6-BA) and kinetin (KIN)—both cytokinins—each applied at the rate of 100 μg/1 (0.1 ppm). […] Aqueous solutions of the tested agents prepared to the stated concentrations/doses were sprayed onto test groups of flowers and leaves (i.e., foliage) of Arabidopsis thaliana until runoff at one day prior to heat exposure and again at four days after the beginning of heat exposure. The total duration of heat exposure was fourteen (14) days. […] The seed pods (i.e. siliques), filled with developed seeds (siliques >7 mm long and/or >1 mm wide and/or bearing seeds), were counted just prior to the beginning of the experiment, and again after fourteen (14) days of heat exposure treatments.

[1] = test system: field-grown beans (i.e., lima beans); assay: Lima bean field yield, Gustine, CA, 2010; details: aqueous kinetin solution applied to foliage just prior to flowering at one pint per acre or two pints per acre; up to approx. 35 degrees Celsius
Procedure: In this example, the effect of the plant growth regulator cytokinin, specifically kinetin, applied at the beginning of flowering and two to four weeks thereafter to field-grown beans (i.e., lima beans) in Gustine, Calif. was observed. Growing temperatures up to approximately 35 degrees Celsius were recorded. […] The difference of “t” test of 5% is significant.

field-grown corn crops = assay: Field-grown corn treated before the reproductive stage, Weslaco, Tex.: yield and seed size
Description: In this example, the effect of the plant growth regulator cytokinin, specifically kinetin, and applied at various times before the reproductive stages of growth, was observed. In Table 2, V7, V10, V13, and V16 refer to stages of growth of the corn plant. V7 refers to the growth stage where the collar of the seventh leaf is visible, V10 refers to the growth stage where the collar of the tenth leaf is visible, V13 refers to the growth stage where the collar of the thirteenth leaf is visible, and V16 refers to the growth stage where the collar of the sixteenth leaf is visible. V16 is also just prior to the reproductive stage of growth. The corn crops were grown in Weslaco, Tex. The water levels were either none (i.e., simply rain referred to as dryland), or drip through a “drip tape” (i.e., drip irrigation whereby sufficient water was applied for more optimal growth of the crop). Results are given for yield (measured in bushels per acre), and the weight of the seed (measured in grams per 1,000 kernels). T tests indicate whether there were differences.

field corn = assay: Field corn yield trials, Ohio, cytokinin with low potassium; details: potassium ½ lb. to 1 lb. per acre with cytokinin (X-Cyte) 1 pint per acre; unreplicated field trials over three years
Description: In this example, the effect of the plant growth regulator/hormone, cytokinin, applied together with low concentrations of potassium, was observed. The cytokinin that was field-applied was X-Cyte, as previously disclosed. In these unreplicated field trials, conducted in Ohio over a three year period, potassium at ½ lb. to 1 lb. per acre and cytokinin at 1 pint per acre were applied to field corn. The average increase in yield attained by applying potassium, in addition to cytokinin, was approximately fifteen (15) bushels per acre.

[2] = EXPT 1, stage V10, variety B25DC25 R80, drip
[3] = EXPT 1, stage V16, variety B25DC25 R80, drip
[4] = EXPT 2, stage V10, variety Asgrow 7573, dry land
[5] = EXPT 3, stage V7, variety H2684162, dry land
[6] = EXPT 3, stage V10, variety H2684162, dry land
[7] = EXPT 3, stage V13, variety H2684162, dry land
[8] = EXPT 3, stage V16, variety H2684162, dry land

Question: How did the “number of seeds (i.e., siliques)” value (Arabidopsis thaliana; 100 μg/l (0.1 ppm) sprayed on foliage 1 day before and 4 days after start of heat, 14 days at 33-36 degrees Celsius days) turn out when `c1coc(CNc2ncnc3[nH]cnc23)c1` [kinetin] was run?
Answer: Its value is “increased number of seeds”.

Question: And the lima bean yields [1]?
Answer: The lima bean yields was “increased significantly”.

Question: And the “1,000 Kernel wt g” value (field-grown corn crops; [2])?
Answer: Its value is 298 g.

Question: And the “Yield Bu/acre” value (field-grown corn crops; [2])?
Answer: The value was 259 Bu/acre.

Question: And the “1,000 Kernel wt g” value (field-grown corn crops; [3])?
Answer: The value was 298 g.

Question: What about the “Yield Bu/acre” value (field-grown corn crops; [3]) of the same compound?
Answer: Its value is 311 Bu/acre.

Question: What about the “1,000 Kernel wt g” value (field-grown corn crops; [4]) of the same compound?
Answer: The value was 244 g.

Question: And the “Yield Bu/acre” value (field-grown corn crops; [4])?
Answer: Its value is 149 Bu/acre.

Question: What about the “1,000 Kernel wt g” value (field-grown corn crops; [5]) of the same compound?
Answer: The value was 295 g.

Question: What about the “Yield Bu/acre” value (field-grown corn crops; [5]) of the same compound?
Answer: Its value is 212 Bu/acre.

Question: And the “1,000 Kernel wt g” value (field-grown corn crops; [6])?
Answer: Its value is 296 g.

Question: And the “Yield Bu/acre” value (field-grown corn crops; [6])?
Answer: Its value is 211 Bu/acre.

Question: And the “1,000 Kernel wt g” value (field-grown corn crops; [7])?
Answer: The value was 299 g.

Question: And the “Yield Bu/acre” value (field-grown corn crops; [7])?
Answer: The value was 208 Bu/acre.

Question: And the “1,000 Kernel wt g” value (field-grown corn crops; [8])?
Answer: The value was 296 g.

Question: And the “Yield Bu/acre” value (field-grown corn crops; [8])?
Answer: Its value is 207 Bu/acre.

Question: What about the “yield versus untreated control” value (field-grown corn crops; all treatments (stages V7 to V16, drip and dryland)) of the same compound?
Answer: The value was “enhanced yield in a highly significant fashion”.

Question: And the “seed size versus untreated control” value (field-grown corn crops; dryland conditions (no added water or irrigation))?
Answer: Its value is “increased seed size in a highly significant fashion”.

Question: With `[K+]` [potassium] as the compound, how does the “average increase in yield by applying potassium in addition to cytokinin” value (field corn) read?
Answer: Its value is about 15 bushels per acre.

Question: Which “sugar/photosynthate deficiency (plant autophagy)” value (Arabidopsis thaliana; sucrose solutions of 20 mM and 100 mM sprayed on foliage, 14 days heat exposure) does the source give for `OC[C@H]1O[C@@](CO)(O[C@H]2O[C@H](CO)[C@@H](O)[C@H](O)[C@H]2O)[C@@H](O)[C@@H]1O` [sucrose] here?
Answer: The value was “alleviated the sugar/photosynthate deficiency”.
